# Results published in patent US8278309B2, “Synthetic mimetics of host defense and uses thereof” (priority 2008, dated 2012).
# Structures can show the parent of a compound that is named as a salt. Where two headings read alike, the source gives them in different places.
# Experiments:
# [1] = Saturation solubility in excipients; type: physicochemical; settings: for solubility: thermodynamic from solid
# [2] = Cytotoxicity colorimetric assay, NIH/3T3; type: cell-based, mouse; settings: mouse, NIH/3T3 cells; one hour in serum-free media
# Description: (§1) Cytotoxicity of Compound A was evaluated in a colorimetric assay using a transformed human liver cell line (HepG2, HB-8065) and an embryonic mouse cell line (NIH/3T3 cells, CRL-1658). This assay measures the bioreduction of a novel tetrazolium compound to a soluble formazan product by viable cells. HepG2 cells were seeded in 96 well plates at 2×10^4 cells/well in MEM medium with 10% fetal bovine serum (FBS) 24 hours prior to use. NIH/3T3 cells were seeded in 96 well plates at 2×10^4 cells/well in DMEM medium with 10% bovine calf serum (BCS) 24 hours prior to use. Cell monolayers were rinsed in serum-free media and incubated for one hour with Compound A in serum-free media. After incubation, the media was replaced with serum supplemented media and live cells were measured using the Cell Titer 96 Aqueous […] Assay kit (Promega, Madison, Wis.). EC50 values were determined using a four parameter logistic equation: Y=Bottom+(Top-Bottom)/(1+10^((LogEC50−X)*HillSlope)).
# [3] = system: NIH/3T3 cells; experiment: Cytotoxicity colorimetric assay, NIH/3T3; type: cell-based, mouse; settings: vs S. aureus MIC
# Description: as §1
# [4] = system: Staph. spp. (coagulase−); experiment: MIC broth microdilution, Gram-positive clinical isolates; type: cell-based; settings: Staph. spp. (coagulase−); 2-3 isolates/organism; read-out: MIC
# Description: (§2) Compound A was evaluated in vitro in accordance with defined CLSI documents specific to the organisms (aerobic, anaerobic or yeast) tested in this study. Ampicillin, ceftazidime, cefuroxime, ciprofloxacin, linezolid, and vancomycin were tested alongside as comparator agents for aerobic bacteria; clindamycin and metronidazole were tested as comparators for anaerobes; fluconazole was tested as a comparator for yeast isolates. Stock solutions of Compound A were prepared in dimethyl sulfoxide (DMSO). Ampicillin, ceftazidime, cefuroxime, ciprofloxacin, linezolid, vancomycin, metronidazole, clindamycin, and fluconazole were prepared each according to its manufacturer's guideline.
# (§3) Minimum inhibitory concentrations (MICs) in μg/ml were determined according to CLSI guideline M7-A7 by broth microdilution. All aerobes were tested using Mueller-Hinton broth medium with the exception of Streptococcus spp., which were tested using cation-adjusted Mueller-Hinton broth supplemented with 2-5% lysed horse blood.
# [5] = system: Entero. faecium (VRE); experiment: as above; type: cell-based; settings: Enterococcus faecium; Entero. faecium (VRE); 2-3 isolates/organism; read-out: MIC
# Description: as §2, §3
# [6] = system: Staph. spidermidis; experiment: as above; type: cell-based; settings: Staph. spidermidis; 2-3 isolates/organism; read-out: MIC
# Description: as §2, §3
# [7] = system: Strept. agalactiae; experiment: as above; type: cell-based; settings: Streptococcus agalactiae; Strept. agalactiae; 2-3 isolates/organism; read-out: MIC
# Description: as §2, §3
# [8] = system: Staph. aureus (MRSA); experiment: as above; type: cell-based; settings: Staphylococcus aureus; Staph. aureus (MRSA); 2-3 isolates/organism; read-out: MIC
# Description: as §2, §3
# [9] = system: Strept. pyogenes; experiment: as above; type: cell-based; settings: Streptococcus pyogenes; Strept. pyogenes; 2-3 isolates/organism; read-out: MIC
# Description: as §2, §3
# [10] = system: Entero. faecalis; experiment: as above; type: cell-based; settings: Enterococcus faecalis; Entero. faecalis; 2-3 isolates/organism; read-out: MIC
# Description: as §2, §3
# [11] = system: Staph. saprophyticus; experiment: as above; type: cell-based; settings: Staphylococcus saprophyticus; Staph. saprophyticus; 2-3 isolates/organism; read-out: MIC
# Description: as §2, §3
# [12] = system: Strept. pneumoniae; experiment: as above; type: cell-based; settings: Streptococcus pneumoniae; Strept. pneumoniae; 2-3 isolates/organism; read-out: MIC
# Description: as §2, §3
# [13] = system: Strept. viridians; experiment: as above; type: cell-based; settings: Strept. viridians; 2-3 isolates/organism; read-out: MIC
# Description: as §2, §3
# [14] = system: Citrobacter freundi; experiment: MIC broth microdilution, Gram-negative clinical isolates; type: cell-based; settings: Citrobacter freundi; 2-3 isolates/organism; read-out: MIC
# Description: as §2, §3
# [15] = system: Haemophilus influenzae; experiment: as above; type: cell-based; settings: 2-3 isolates/organism, read-out: MIC
# Description: as §2, §3
# [16] = system: Klebsiella pneumoniae; experiment: as above; type: cell-based; settings: 2-3 isolates/organism, read-out: MIC
# Description: as §2, §3
# [17] = system: Citrobacter koseri; experiment: as above; type: cell-based; settings: 2-3 isolates/organism, read-out: MIC
# Description: as §2, §3
# [18] = system: Klebsiella oxytoca; experiment: as above; type: cell-based; settings: 2-3 isolates/organism, read-out: MIC
# Description: as §2, §3
# [19] = system: Enterobacter cloacae; experiment: as above; type: cell-based; settings: 2-3 isolates/organism, read-out: MIC
# Description: as §2, §3
# [20] = system: Providencia stuartii; experiment: as above; type: cell-based; settings: 2-3 isolates/organism, read-out: MIC
# Description: as §2, §3
# [21] = system: Escherichia coli; experiment: as above; type: cell-based; settings: 2-3 isolates/organism, read-out: MIC
# Description: as §2, §3
# [22] = In vitro metabolic stability, blood plasma; type: in vitro ADME; settings: 5 μM, 37° C.
# Description: Pooled plasma samples from human (mixed gender), rat (mixed breed and gender) and dog (mixed breed and gender) were incubated with Compound A (5 μM) at 37° C. for 0 and 60 minutes (duplicate samples). Incubations were terminated by addition of ice-cold precipitation solvent (acetonitrile:glacial acetic acid, 9:1 v/v). Supernatants were diluted with equal volume of 0.1% formic acid and analyzed by HPLC-MS/MS. Plasma stability is reported as % parent compound at 60 minutes relative to amount of parent at 0 minutes.
# [23] = rat, in vivo, iv
# Description: Maximum tolerated dose (MTD) determinations were made in ascending/descending dose studies in mice and rats. Compound A was administered by either i.v. bolus injection in the tail vein of mice and rats or by i.v. infusion via catheter in the femoral vein of rats. At each dose, two to three animals were administered compound and clinical signs were recorded over a 4 to 7 day period. Gross necropsy was performed at the conclusion of the study.
# [24] = Cytotoxicity colorimetric assay, HepG2; type: cell-based, human; settings: human, HepG2 cells; one hour in serum-free media
# Description: (§4) This assay measures the bioreduction of a novel tetrazolium compound to a soluble formazan product by viable cells. HepG2 cells were seeded in 96 well plates at 2×10^4 cells/well in MEM medium with 10% fetal bovine serum (FBS) 24 hours prior to use. NIH/3T3 cells were seeded in 96 well plates at 2×10^4 cells/well in DMEM medium with 10% bovine calf serum (BCS) 24 hours prior to use. […] After incubation, the media was replaced with serum supplemented media and live cells were measured using the Cell Titer 96 Aqueous Non-Proliferation Assay kit (Promega, Madison, Wis.). EC50 values were determined using a four parameter logistic equation: Y=Bottom+(Top-Bottom)/(1+10^((LogEC50−X)*HillSlope)).
# [25] = system: HepG2; experiment: Cytotoxicity colorimetric assay, HepG2; type: cell-based, human; settings: vs S. aureus MIC
# Description: as §4
structure (smiles),measurement,setting,value
"N=C(N)NCCCCC(=O)Nc1cc(C(F)(F)F)cc(NC(=O)c2cc(C(=O)Nc3cc(C(F)(F)F)cc(NC(=O)CCCCNC(=N)N)c3O[C@H]3CCNC3)ncn2)c1O[C@H]1CCNC1 [Compound A, pyrimidine-4,6-dicarboxylic acid bis-{[3-(5-guanidino-pentanoylamino)-2-((R)-pyrrolidin-3-yloxy)-5-trifluoromethyl-phenyl]-amide}tetrahydrochloride]",behaviour of formulation at saturation,[1]; 0.9% and 1.2% sodium chloride solution,formed a viscous yellow gel
same,solubility,"[1]; 15% w/v glycerin in purified water, 25 °C, aqueous with cosolvent or surfactant or cyclodextrin, 15% w/v glycerin in purified water, read-out: saturation solubility at 25° C. (free base)",63.5 mg/mL
same,solubility,"[1]; 15% w/v propylene glycol in purified water, 25 °C, aqueous with cosolvent or surfactant or cyclodextrin, 15% w/v propylene glycol in purified water, read-out: saturation solubility at 25° C. (free base)",64.9 mg/mL
same,solubility,"[1]; 20% w/v Kleptose in purified water, 25 °C, aqueous with cosolvent or surfactant or cyclodextrin, 20% w/v Kleptose in purified water, read-out: saturation solubility at 25° C. (free base)",79.7 mg/mL
same,behaviour of formulation at saturation,[1]; 20-50% w/v propylene glycol in saline,formation of a viscous yellow gel
same,solubility,"[1]; 25% w/v Captisol in purified water, 25 °C, aqueous with cosolvent or surfactant or cyclodextrin, 25% w/v Captisol in purified water, read-out: saturation solubility at 25° C. (free base)",64.3 mg/mL
same,solubility,"[1]; 30% w/v glycerin in purified water, 25 °C, aqueous with cosolvent or surfactant or cyclodextrin, 30% w/v glycerin in purified water, read-out: saturation solubility at 25° C. (free base)",63.1 mg/mL
same,solubility,"[1]; 30% w/v propylene glycol and 5 w/v ethanol in purified water, 25 °C, aqueous with cosolvent or surfactant or cyclodextrin, 30% w/v propylene glycol and 5 w/v ethanol in purified water, read-out: saturation solubility at 25° C. (free base)",43.9 mg/mL
same,solubility,"[1]; 30% w/v propylene glycol in purified water, 25 °C, aqueous with cosolvent or surfactant or cyclodextrin, 30% w/v propylene glycol in purified water, gelled during centrifugation but liquefied on standing, read-out: saturation solubility at 25° C. (free base)",59.1 mg/mL
same,solubility,"[1]; 40% w/v Kleptose in purified water, 25 °C, aqueous with cosolvent or surfactant or cyclodextrin, 40% w/v Kleptose in purified water, read-out: saturation solubility at 25° C. (free base)",102 mg/mL
same,solubility,"[1]; 50% w/v glycerin in purified water, 25 °C, aqueous with cosolvent or surfactant or cyclodextrin, 50% w/v glycerin in purified water, read-out: saturation solubility at 25° C. (free base)",56.8 mg/mL
same,solubility,"[1]; 50% w/v propylene glycol in purified water, 25 °C, aqueous with cosolvent or surfactant or cyclodextrin, 50% w/v propylene glycol in purified water, read-out: saturation solubility at 25° C. (free base)",74.7 mg/mL
same,saturation solubility at 25° C. (free base),[1]; Citric Acid/Sodium Citrate (pH 5),11.2 mg/mL
same,solubility,"[1]; DMA, 25 °C, organic solvent or mixture, DMA, read-out: saturation solubility at 25° C. (free base)",0.6 mg/mL
same,solubility,"[1]; PEG 400, 25 °C, organic solvent or mixture, PEG 400, read-out: saturation solubility at 25° C. (free base)",18.5 mg/mL
same,solubility,"[1]; Tris(hydroxymethyl)aminomethane buffer, 25 °C, pH 7.4, aqueous buffer, pH 7.4, read-out: solubility",61.4 mg/mL
same,solubility,"[1]; benzyl alcohol, 25 °C, organic solvent or mixture, Benzyl alcohol, read-out: saturation solubility at 25° C. (free base)",1.83 mg/mL
same,solubility,"[1]; citric acid/sodium citrate buffer, 25 °C, pH 3, aqueous buffer, Citric Acid/Sodium Citrate (pH 3), read-out: saturation solubility at 25° C. (free base)",65.5 mg/mL
same,solubility,"[1]; citric acid/sodium citrate buffer, 25 °C, pH 5, aqueous buffer, Citric Acid/Sodium Citrate (pH 5), read-out: saturation solubility at 25° C. (free base)",12.1 mg/mL
same,solubility,"[1]; ethanol, 25 °C, organic solvent or mixture, Ethanol, read-out: saturation solubility at 25° C. (free base)",1.13 mg/mL
same,solubility,"[1]; glycerin, 25 °C, organic solvent or mixture, Glycerin, read-out: saturation solubility at 25° C. (free base)",53 mg/mL
same,solubility,"[1]; propylene glycol, 25 °C, organic solvent or mixture, Propylene Glycol, read-out: saturation solubility at 25° C. (free base)",90 mg/mL
same,solubility,"[1]; purified water, 25 °C, water, Purified Water, read-out: saturation solubility at 25° C. (free base)",65 mg/mL
same,solubility,"[1]; tris(hydroxymethyl)aminomethane HCl buffer, 25 °C, pH 7, aqueous buffer, Tris(hydroxymethyl)amino methane HCl (pH 7.0), read-out: saturation solubility at 25° C. (free base)",61.4 mg/mL
same,EC50 at 1 h,[2],430 µg/mL
same,Selectivity (EC50/MIC) 3T3,[3],430
same,MIC,[4],0.25 to 0.5 µg/mL
same,MIC,[5],1 µg/mL
same,MIC,[6],0.25 to 0.5 µg/mL
same,MIC,[7],2 µg/mL
same,MIC,[8],0.5 to 1 µg/mL
same,MIC,[9],1 to 4 µg/mL
same,MIC,[10],1 µg/mL
same,MIC,[11],0.25 to 0.5 µg/mL
same,MIC,[12],4 to 8 µg/mL
same,MIC,[13],2 to 8 µg/mL
same,MIC,[14],2 to 4 µg/mL
same,MIC,[15],4 to 8 µg/mL
same,MIC,[16],1 to 2 µg/mL
same,MIC,[17],1 to 2 µg/mL
same,MIC,[18],2 to 8 µg/mL
same,MIC,[19],0.5 to 4 µg/mL
same,MIC,[20],16 to 64 µg/mL
same,MIC,[21],1 to 2 µg/mL
same,Plasma Stability (%),"[22]; Dog (mixed breeds), 60 minutes",100%
same,Plasma Stability (%),"[22]; Human, parent at 60 minutes relative to 0 minutes",96%
same,Plasma Stability (%),"[22]; Rat (mixed breeds), 60 minutes",102%
same,MTD,[23],>24 mg/kg
same,EC50 at 1 h,[24],1030 µg/mL
same,Selectivity (EC50/MIC) HepG2,[25],"1,031"
